Patent US20090220438A1, “CHROMEN-4-ONE DERIVATIVES AS SELF-TANNING SUBSTANCE” (MERCK PATENT GMBH, priority 2006, published 2009)

Experiments:
[1] = system: primary normal human melanocytes (R6-NHEM-2); assay: Melanogenesis assay (melanin content after 240 hours incubation, OD at 405 nm against melanin standard); assay type: cell-based; settings: for Melanin: 240 hours incubation
Procedure: The action of the compounds of the formula I as tanning agents is tested through the ability to increase melanin synthesis. The reference used is kojic acid, which acts on melanin synthesis and prevents a possible brown coloration of the skin. It can be seen from Table 1 that the compounds Ia to 1 g according to the invention are distinguished by the fact that—after topical application—they induce the formation of skin-inherent pigments in the skin, increase melanin synthesis in the skin and in this way produce enhanced tanning of the skin. They have no adverse health effects, are non-irritant and easy to handle, and the resultant hue naturally corresponds to that of the natural healthy skin colour. The tanning obtained is light-fast and cannot be washed off since it corresponds to natural tanning. To this end, primary normal human melanocytes (R6-NHEM-2)* are cultivated in 24 microtitre plates (96-well, 120,000 cells per tube). Two additional plates are carried out, one for evaluation of the viability of the cells (standard MTT assay) and a second for protein investigation (using a […] standard protocol). After 50% confluence, the culture medium is replaced by fresh culture medium which comprises either the control solution (KA or IBMX) or the 7 solutions to be investigated. Each experiment is repeated 3 times. The cells are incubated at 37° C. (and 5% CO2) for 240 hours, during which the medium is changed every 3 days. After incubation, monolayers are rinsed, the cells are destroyed, and melanin is extracted by means of a 0.5 M NaOH solution. *NHEM-2=normal human epidermal melanocytes (cell type) The optical density (OD) of each experimentally determined value is measured at 405 nm against the melanin standard (standard curve 0.39 to 100 μg/ml of melanin, Sigma M8631). The measurement results are quoted in μg/ml of melanin and in percent of the negative untreated control.

[2] = Tanning activity of intermediates or precursors (statement, no method given)
[3] = Homo sapiens, Melanocyte, 240 h, 200 μM, percent of the negative untreated control
[4] = Homo sapiens, Melanocyte, 240 h, 8 μM, percent of the negative untreated control
[5] = Homo sapiens, Melanocyte, 240 h, 40 μM, percent of the negative untreated control
[6] = Homo sapiens, Melanocyte, 240 h, 1.6 μM, percent of the negative untreated control

CC(C)Cn1c(=O)n(C)c(=O)c2[nH]cnc21 [IBMX, 3-isobutyl-1-methylxanthine, reference compound]
Melanin ([1]; 200 μM): 15.39 µg/mL
activity at 200 µM [1, 3]: 166%

COCC(=O)c1c(COC)oc2cc(O)cc(O)c2c1=O [IIa, 5,7-dihydroxy-3-(2-methoxyacetyl)-2-methoxymethyl-1-benzopyran-4-one]
Tanning activity (in words) [2]: have a tanning activity

COCc1cc(=O)c2c(O)cc(O)cc2o1 [Ia, 5,7-dihydroxy-2-methoxymethylchromen-4-one]
Melanin ([1]; 50 μM): 17.87 µg/mL
Melanin ([1]; 150 μM): 22.14 µg/mL
Melanin ([1]; 450 μM): 19.98 µg/mL
activity at 50 µM ([1]; Homo sapiens, Melanocyte, 240 h, 50 μM, percent of the negative untreated control): 192%
activity at 150 µM ([1]; Homo sapiens, Melanocyte, 240 h, 150 μM, percent of the negative untreated control): 239%
activity at 450 µM ([1]; Homo sapiens, Melanocyte, 240 h, 450 μM, percent of the negative untreated control): 215%

COCc1oc2cc(O)cc(O)c2c(=O)c1OC [Ib, 5,7-dihydroxy-3-methoxy-2-methoxymethylchromen-4-one]
Melanin ([1]; 8 μM): 20.9 µg/mL
Melanin ([1]; 40 μM): 23.7 µg/mL
Melanin ([1]; 200 μM): 25.2 µg/mL
activity at 8 µM [1, 4]: 106%
activity at 40 µM [1, 5]: 120%
activity at 200 µM [1, 3]: 128%

O=c1c(O)c(CO)oc2cc(O)cc(O)c12 [Ic]
Melanin ([1]; 8 μM): 20.8 µg/mL
Melanin ([1]; 40 μM): 23.8 µg/mL
Melanin ([1]; 200 μM): 27.6 µg/mL
activity at 8 µM [1, 4]: 105%
activity at 40 µM [1, 5]: 120%
activity at 200 µM [1, 3]: 139%

COc1c(C)oc2cc(O)cc(O)c2c1=O [Id, 5,7-dihydroxy-3-methoxy-2-methylchromen-4-one]
Melanin ([1]; 1.6 μM): 20.8 µg/mL
Melanin ([1]; 8 μM): 22.0 µg/mL
Melanin ([1]; 40 μM): 27.0 µg/mL
activity at 1.6 µM [1, 6]: 106%
activity at 8 µM [1, 4]: 112%
activity at 40 µM [1, 5]: 137%

Cc1oc2cc(O)cc(O)c2c(=O)c1O [Ie, 2-methyl-3,5,7-trihydroxychromen-4-one]
Melanin ([1]; 8 μM): 20.6 µg/mL
Melanin ([1]; 40 μM): 23.9 µg/mL
Melanin ([1]; 200 μM): 27.2 µg/mL
activity at 8 µM [1, 4]: 104%
activity at 40 µM [1, 5]: 121%
activity at 200 µM [1, 3]: 138%

O=c1ccoc2cc(O)ccc12 [If, 7-hydroxychromen-4-one]
Melanin ([1]; 1.6 μM): 19.9 µg/mL
Melanin ([1]; 8 μM): 20.3 µg/mL
Melanin ([1]; 40 μM): 24.7 µg/mL
activity at 1.6 µM [1, 6]: 100%
activity at 8 µM [1, 4]: 102%
activity at 40 µM [1, 5]: 124%

O=c1ccoc2c(O)c(O)ccc12 [Ig, 7,8-dihydroxychromen-4-one]
Melanin ([1]; 0.32 μM): 20.7 µg/mL
Melanin ([1]; 1.6 μM): 19.9 µg/mL
Melanin ([1]; 8 μM): 19.8 µg/mL
activity at 0.32 µM ([1]; Homo sapiens, Melanocyte, 240 h, 0.32 μM, percent of the negative untreated control): 104%
activity at 1.6 µM [1, 6]: 100%
activity at 8 µM [1, 4]: 100%

O=c1cc(CO)occ1O [Kojic acid, kojic acid, reference compound]
Melanin ([1]; 560 μM): 5.55 µg/mL
activity at 560 µM ([1]; Homo sapiens, Melanocyte, 240 h, 560 μM, percent of the negative untreated control): 55%
